From EP1769804B1, “hPTH(1-34) for use in preventing or reducing the incidence or severity of vertebral and / or non vertebral fracture in a male human” (priority 1998, dated 2012)
Marks after values point to notes of the source that are not given here.

Assays:
[1] = tested on: Ovariectomized Primates; assay: Biomechanical measures of strength in the spine (lumbar vertebrae L-3 and L-4); type: in vivo, Macaca fascicularis; settings: for A (cross-sectional area) / E (Young's modulus) / Fy (yield force) / S (stiffness): L-3 and L-4 combined, mean ± SEM
Description: (§1) Biomechanical tests were done on lumbar vertebrae L-3 to L-4, the femur neck, humerus midshaft, and on a cortical bone specimen machined from the femur diaphysis (measures defined in Table 2). Conventional static and dynamic histomorphometry were done (measures described in Table 6) on the humerus midshaft, lumbar vertebra L-2, femoral neck, femur midshaft, the radius midshaft and distal radius. Initial statistical analyses compared all groups to vehicle-treated ovariectomized controls. The data is suitable for additional exploratory analyses to examine dose dependency, effects of withdrawal, interactions between outcomes, and changes in time by methods known to those of skill in the art. All assays were conducted and determined by methods known in the art.

[2] = tested on: Ovariectomized Primates; assay: Biomechanical material properties of beam specimens from femur diaphysis; type: in vivo, Macaca fascicularis; settings: for E (Young's modulus) / u (toughness) / εa / σa: femur diaphysis beam, mean ± SEM
Description: as §1

[3] = tested on: Ovariectomized Primates; assay: Biomechanical measure of strength of femur neck; type: in vivo, Macaca fascicularis; set-up: Fa, Proximal femur neck: unit not given here; settings: for Fa, Proximal femur neck: mean ± SEM
Description: as §1

[4] = tested on: L-5 vertebra from cynomolgus monkeys; assay: QCT and 3D finite element modeling of L-5 vertebra; type: in vivo; settings: for low BMD, percentage of L5 vertebral volume: 0-300 mg/cc; for low BMD, percentage of L5 vertebral volume / medium BMD, percentage of L5 vertebral volume / high BMD, percentage of L5 vertebral volume / cortical BMD, percentage of L5 vertebral volume: mean±SEM; for medium BMD, percentage of L5 vertebral volume: 300-700 mg/cc; for high BMD, percentage of L5 vertebral volume: 700-1000 mg/cc; for cortical BMD, percentage of L5 vertebral volume: >1000 mg/cc; for vertebral effective strain: finite element model, distributed load of 100 N
Procedure: These studies determined 3D finite element modeling data on vertebra from monkeys of the study dosed with PTH for 18 months. Excised L-5 vertebra in 50% ethanol/saline from the ovariectomized (n=7) and PTH (n=7) groups were serially scanned in 500 µm steps by quantitative computed tomography (QCT, Norland, Ft. Atkinson, WI), using 70x70 µm pixels. Each of the 500 µm cross-sections was analyzed for volumetric bone mineral density (BMD, mg/cc), bone mineral content (BMC, mg), cross-sectional area (X-Area), cancellous bone volume (BV/TV), trabecular thickness (Tb.Th), and connectivity (node density, strut analysis). Pixels in each serial scan were averaged to create 490x490x500 µm voxels. The serial scans were then stacked and a triangular surface mesh generated for each bone using the "marching cubes" algorithm (see e.g. Lorensen and Cline 1987 "Marching cubes, a high resolution 3D surface construction algorithm." Computer Graphics 21, 163-169). A smoothed version of each surface mesh was then used to generate a tetrahedral mesh for 3D finite-element modeling.
Young's modulus for each tetrahedral element was derived from the original voxel densities and material properties from a beam of cortical bone milled from the femoral diaphysis of the monkeys. Each tetrahedral mesh was rotated so that the bottom surface of each vertebra was aligned with a plane. Linear elastic stress analysis was then performed for each L-5 model in which a distributed load of 100 N was applied to the top surface of the centrum, perpendicular to the bottom plane while the bottom surface was fixed in the direction of loading. The resulting axial strain contours were evaluated, as were the BMD distributions, and compared between PTH and ovariectomized. At this resolution, the density of each voxel is dependent on the extent to which each voxel is filled with bone as opposed to soft tissue.

[5] = tested on: ovariectomized cynomolgus primates; assay: Serum and urine measures in the primate study; type: in vivo, Macaca fascicularis
Description: All animals were euthanized after 18 months.

[6] = tested on: cortical bone of the humerus; assay: Histomorphometry and polarized Fourier transform infrared microscopy of humerus cortical bone; type: in vivo, Macaca fascicularis
Procedure: For certain experimental subjects, cortical bone of the humerus was examined by histomorphometry and by polarized Fourier transform infrared microscopy. The Fourier transform infrared microscopy was conducted by an adaptation of known methods for such microscopy.

[7] = tested on: rodents; assay: In vivo mechanistic studies in rodents; settings: after the first dose
[8] = tested on: post-menopausal women; assay: Clinical trial: number and severity of vertebral fractures (spine x-ray); type: in vivo, Humans
[9] = cynomolgus monkey, in vivo
Procedure: Serum and urinary samples were taken 24 hours after vehicle or rhPTH(1-34) injection at 3-month intervals. A sparse sampling design of 5 monkeys in each rhPTH(1-34)-treated group was used for pharmacokinetics, with sampling (spanning 0 to 240 minutes each time) at baseline, 7, 11, and 17 months.

[10] = tested on: ovariectomized cynomolgus monkeys; settings: cynomolgus monkey, in vivo
Procedure: The live phase of the study used feral, adult (closed growth plates) cynomolgus primates (Macaca fascicularis), weighing 2.77±0.03 kg (mean ± standard error of the mean [SEM]). Monkeys were held in quarantine for 3 months, then started on a diet containing 0.3% calcium, 0.3% phosphate, and 250 IU vitamin D3/100 g diet, and given fluoridated water (1 ppm fluoride) ad libitum. The calcium content corresponded to 1734 mg calcium/2000 calories. After 1 month on the diet, animals were sorted into groups of 21 or 22, sham operated or ovariectomized. Once daily subcutaneous injections of vehicle (sham and ovariectomized controls) or rhPTH(1-34), at 1 µg/kg (PTH1) or 5 µg/kg (PTH5), were started 24 hours after ovariectomy. Animals were treated for either 18 months (PTH1 and PTHS), or for 12 months followed by withdrawal of treatment (PTH1-W and PTH5-W).

[11] = PTH1-W: withdrawal for 6 months after 1 µg/kg for 12 months
[12] = PTH5-W: withdrawal for 6 months after 5 µg/kg for 12 months
[13] = compared to ovariectomized controls
[14] = PTH1-W: withdrawal after 1 µg/kg for 12 months
[15] = PTH5-W: withdrawal after 5 µg/kg for 12 months
[16] = PTH-W, after withdrawal of PTH for 6 months
[17] = PTH for 18 months compared to ovariectomized
[18] = compared to ovariectomized, 24 hours after injection
[19] = 20 µg/day PTH compared to placebo
[20] = 40 µg/day PTH compared to placebo
[21] = all PTH treated patients compared with placebo

teriparatide [rhPTH(1-34)]
A (cross-sectional area) [1, 11]: 90.9±2.3 mm^2
E (Young's modulus) [1, 11]: 659±42 Mpa
Fy (yield force) [1, 11]: 1899±73^a N
S (stiffness) [1, 11]: 7401±432^a N/mm
E (Young's modulus) ([1]; PTH1: 1 µg/kg for 18 months): 717±48^a Mpa
Fy (yield force) ([1]; PTH1: 1 µg/kg for 18 months): 1915±105^a N
S (stiffness) ([1]; PTH1: 1 µg/kg for 18 months): 7701 ± 474^a N/mm
A (cross-sectional area) [1, 12]: 82.8±2.1 mm^2
E (Young's modulus) [1, 12]: 698±41^a Mpa
Fy (yield force) [1, 12]: 1792±39^a N
S (stiffness) [1, 12]: 7074±314^a N/mm
A (cross-sectional area) ([1]; PTH5: 5 µg/kg for 18 months): 87.3±2.7 mm^2
E (Young's modulus) ([1]; PTH5: 5 µg/kg for 18 months): 759±36^a Mpa
Fy (yield force) ([1]; PTH5: 5 µg/kg for 18 months): 2113±77^3.0 N
S (stiffness) ([1]; PTH5: 5 µg/kg for 18 months): 8012 ±367^a N/mm
increase of strength (Fy) in the vertebrae [1, 13]: up to 43%
material properties of beam specimens machined from the femoral diaphysis [2, 13]: did not alter
E (Young's modulus) [2, 14]: 16.6 ± 0.6 Gpa
u (toughness) [2, 14]: 5.3 ± 0.4 mJ/m^3
εa [2, 14]: 0.034 ± 0.002
σa [2, 14]: 214 ± 6 Mpa
E (Young's modulus) ([2]; PTH1: 1 µg/kg for 18 months): 17.1 ± 0.4 Gpa
u (toughness) ([2]; PTH1: 1 µg/kg for 18 months): 6.1 ± 0.4 mJ/m^3
εa ([2]; PTH1: 1 µg/kg for 18 months): 0.036 ± 0.002
σa ([2]; PTH1: 1 µg/kg for 18 months): 222 ± 4 Mpa
E (Young's modulus) [2, 15]: 15.3 ± 0.6^a Gpa
u (toughness) [2, 15]: 6.1 ± 0.4 mJ/m^3
εa [2, 15]: 0.038 ± 0.002
σa [2, 15]: 208 ± 6 Mpa
E (Young's modulus) ([2]; PTH5: 5 µg/kg for 18 months): 15.4 ± 0.6^a Gpa
u (toughness) ([2]; PTH5: 5 µg/kg for 18 months): 5.4 ± 0.4 mJ/m^3
εa ([2]; PTH5: 5 µg/kg for 18 months): 0.034 ± 0.002
σa ([2]; PTH5: 5 µg/kg for 18 months): 206 ± 6 Mpa
Fa, Proximal femur neck [3, 14]: 1258 ± 52^a
Fa, Proximal femur neck ([3]; PTH1: 1 µg/kg for 18 months): 1235 ± 43^a
Fa, Proximal femur neck [3, 15]: 1213 ± 42
Fa, Proximal femur neck ([3]; PTH5: 5 µg/kg for 18 months): 1362 ± 30^a
improvement of strength in the femur neck (fu) [3, 13]: up to 12%
low BMD, percentage of L5 vertebral volume ([4]; PTH for 18 months): 17.7±1.6 %
low BMD, percentage of L5 vertebral volume [4, 16]: 22.4±1.3 %
medium BMD, percentage of L5 vertebral volume ([4]; PTH for 18 months): 58.9±1.9 %
medium BMD, percentage of L5 vertebral volume [4, 16]: 49.7±1.2%
high BMD, percentage of L5 vertebral volume ([4]; PTH for 18 months): 22.8±2.7%
high BMD, percentage of L5 vertebral volume [4, 16]: 27.0±1.6 %
cortical BMD, percentage of L5 vertebral volume ([4]; PTH for 18 months): 0.6±0.3%
cortical BMD, percentage of L5 vertebral volume [4, 16]: 0.8±0.2%
BMC at the midlevel of the L5 vertebra ([4]; PTH for 18 months): 47.4 ± 1.5 mg
greater Tb.N, centrum [4, 17]: 37%
greater node density (node/tissue volume) [4, 17]: 140%
greater node-to-node struts [4, 17]: 286%
increase in BMC, middle 500 µm slice of L-5 [4, 17]: 27%
increase in BMD, middle 500 µm slice of L-5 [4, 17]: 21%
increase in BV/TV, centrum [4, 17]: 73%
increase in Tb.Th, centrum [4, 17]: 30%
reduction of average mechanical strain in the vertebra ([4]; PTH treatment, vs OVX): 36%
BMC at the midlevel of the L5 vertebra [4, 16]: 44.2 ± 1.2 mg
average mechanical strain in the vertebra below OVX ([4]; after withdrawal of PTH): 23%
vertebral effective strain ([4]; PTH for 18 months): 447±36 ustrain
vertebral effective strain [4, 16]: 539±34 ustrain
serum total alkaline phosphatase (ALP) and osteocalcin ([5]; bone formation markers): restored levels back to sham values
1,25-dihydroxyvitamin D [5, 18]: higher
endogenous PTH [5, 18]: lower
serum phosphate [5, 18]: lower
urinary cAMP [5, 18]: higher
Urinary C-telopeptide (CrossLaps) excretion ([5]; marker of bone resorption, compared to ovariectomized controls): not altered
bone quality (crystallites) [6]: improved bone quality by replacing old bone (large crystallites) with young bone
time to detectable increase in bone forming surfaces [7]: ≤ 24 h
Number of patients with 2 or more new vertebral fractures ([8]; 20 µg/day PTH (n=444)): 5
Number of patients with new moderate to severe fractures ([8]; 20 µg/day PTH (n=444)): 4
Number of patients with new vertebral fractures ([8]; 20 µg/day PTH (n=444)): 22
percentage of patients with 2 or more new vertebral fractures ([8]; 20 µg/day PTH (n=444)): (1.1%)
percentage of patients with new moderate to severe fractures ([8]; 20 µg/day PTH (n=444)): (0.9%)
percentage of patients with new vertebral fractures ([8]; 20 µg/day PTH (n=444)): (5.0%)
reduction in number of patients with moderate to severe vertebral fractures [8, 19]: 90%
reduction in number of patients with multiple vertebral fractures [8, 19]: 77%
reduction in number of patients with vertebral fractures [8, 19]: 65%
Number of patients with 2 or more new vertebral fractures ([8]; 40 µg/day PTH (n=434)): 3
Number of patients with new moderate to severe fractures ([8]; 40 µg/day PTH (n=434)): 9
Number of patients with new vertebral fractures ([8]; 40 µg/day PTH (n=434)): 19
percentage of patients with 2 or more new vertebral fractures ([8]; 40 µg/day PTH (n=434)): (0.7%)
percentage of patients with new moderate to severe fractures ([8]; 40 µg/day PTH (n=434)): (2.1%)
percentage of patients with new vertebral fractures ([8]; 40 µg/day PTH (n=434)): (4.4%)
reduction in number of patients with moderate to severe vertebral fractures [8, 20]: 78%
reduction in number of patients with multiple vertebral fractures [8, 20]: 86%
reduction in number of patients with vertebral fractures [8, 20]: 69%
reduction in number of patients with moderate to severe vertebral fractures [8, 21]: 84%
reduction in number of patients with multiple vertebral fractures [8, 21]: 81%
reduction in number of patients with vertebral fractures [8, 21]: 67%
reduction in the number of patients with moderate or severe fractures ([8]; summary): 78%
reduction of the number of patients with prior vertebral fractures who suffered new vertebral fractures ([8]; summary): more than 66%
reduction of the number of patients with prior vertebral fractures who suffered new, multiple vertebral fractures ([8]; summary): more than 78%
pharmacokinetic measures [9]: did not change with time
sustained hypercalcemia or kidney pathology [10]: no evidence of sustained hypercalcemia or kidney pathology
